# Data from US20110262508A1, “ANTIMICROBIAL COMPOSITIONS, FORMULATIONS AND USES THEREOF” (priority 2007, published 2011).
# Read-outs that look alike come from different tables or passages of the source. Square brackets hold non-standard residues; d marks the D form. Peptide text beside a SMILES is read from it. * marks the point of attachment. Biotin = O=C1N[C@H]2[C@H](CS[C@H]2CCCCC(=O)*)N1
# What was measured:
# human RBC = experiment: Hemolysis of RBC; format: cell-based
# Description: Varying amounts of peptide were incubated with the washed RBC for one hour at room temperature. Intact cells were pelleted by gentle centrifugation, and hemolysis of each sample was determined by absorption measurement at 450 nm. A positive control sample consisted of RBC lysed by the addition of 0.1% Triton, for which hemolysis was also determined by absorption measurement at 450 nm. Percentages of lysed RBC incubated with peptide were then calculated by the ratio of absorbances at 450 nm for the sample relative to the absorbance at 450 nm of the positive control sample. The MHC10 value was calculated as the minimum peptide concentration to induce 10% cell lysis.
# A. baumannii [1] = format: cell-based
# Method in brief: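 Laboratory strains and 50 clinical isolates of A. baumannii were tested by CLSI broth microdilution, with serially diluted peptide (0.1-64 μg) and about 1×10^5 C.F.U. per well, incubated aerobically overnight at 35±2° C. MIC was read visually. MBC came from subculturing clear wells, as ≥99.9% inoculum reduction.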
# Jurkat cells = experiment: Cytotoxicity against Jurkat cells (CellTiter Blue); format: cell-based, human
# Description: (§1) The cytotoxicities of selected peptides against human T-lymphocytes, in particular Jurkat cells, was determined by growing 100 uL Jurkat cells in RPMI (approx. 5×10^5 cells/ml density) overnight at 37° C. under 5% CO2 atmosphere, in microtiter plate wells, in the presence and absence of peptides. Control reactions either lacked peptide (negative cytotoxicity control), or contained a buffer to completely lyse Jurkat cells (positive cytotoxicity control). The viabilities of cells were then determined by addition of 20 uL CellTiter Blue dye (Promega) to each well, and incubation of cells for a further 3 hrs at 37° C. Fluorescence values were measured for 1 sec at 540 nm/615 nm, and expressed relative to fluorescence values for negative and positive cytotoxicity control samples. Comparison with a fully lysed control allowed the calculation of a percentage killing for each peptide concentration. The MCC10 value was calculated as the minimum peptide concentration required to induce 10% cytotoxicity.
# [2] = Cytotoxicity against Jurkat cells (CellTiter Blue); format: cell-based, human; details: human
# Description: as §1
# A. baumannii [3] = experiment: A. baumannii lung infection in mice, cell counts in lungs; format: in vivo, C57B1/6 mice
# Description: Groups of C57B1/6 mice that have been ear-tagged for identification are used. Freshly-prepared inocula of A. baumannii are prepared from cultures of A. baumannii passaged four times through mice, and cultures are grown with agitation at 37° C. in Nutrient broth to an OD600 value of approximately 0.3 units. Cells are collected by centrifugation at room temperature for 20 mins (5,500 rpm using a GA-10 rotor) and resuspended in 10 ml sterile PBS at room temperature. This wash is repeated once. The cell pellet is then resuspended in 0.5 ml PBS to an approximate concentration of 2.5×10^9 c.f.u./ml. Animals are inoculated intranasally 40 μl inoculum (approximately 1×10^8 c.f.u.) using a sterile 200 μl capacity pipette tip having approximately 3 mm removed from the end. The precise time of inoculation is recorded for each animal. Peptides are administered intravenously e.g., after 3 hr, in 200 μl aliquots of a 200 μM peptide solution in PBS.
# At 5.5 hr post-inoculation (taking into account staggered inoculation times), both lung lobes are removed from the animals, homogenised in 0.9 ml PBS and plated on MHB plates at 1×10^−3 dilution, 1×10^−4 dilution and 1×10^−5 dilution in PBS. Following incubation periods sufficient to grow colonies, cells are counted.
# [4] = system: A. baumannii ATCC 19606, Acinetobacter spp. ATCC 17903, Acinetobacter spp. ATCC 19004, E. coli BL21, S. aureus, S. typhimurium AroA, P. aeruginosa, P. …; experiment: Antibacterial spectrum over the serial dilution panel (Table 6); format: cell-based; details: summary of Table 6
# Method in brief: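 Peptides at about 5–10 μM were added to liquid media freshly inoculated with each bacterial strain and shaken 5-6 h at 37° C. Growth read as absorbance at 595 nm; control cultures contained 0.1% acetonitrile.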
# A. baumannii cultures = experiment: Time taken to exert cytotoxic effect (killing time); format: cell-based
# Description: To determine the time killing times for bactericidal peptides, A. baumannii cultures were exposed to different concentrations of peptides for predetermined time periods, and the numbers of bacteria surviving at the end of each time period were determined. Peptides were classified as “Fast”, “Intermediate” or “Slow” according to whether they exerted their cytotoxic effect in less than 30 mins, or between 30-60 mins, or between […] and 240 mins.
# S. aureus = format: cell-based
# [5] = system: Escherichia coli strain BL21; format: cell-based; details: E. coli BL21
# [6] = system: A. baumannii ATCC Accession No. 19606; format: cell-based; details: A. baumannii ATCC 19606
# [7] = system: S. typhimurium strain AroA; format: cell-based
# [8] = system: Acinetobacter spp. ATCC 19004; format: cell-based
# [9] = system: Acinetobacter spp. ATCC 17903; format: cell-based
# P. aeruginosa = format: cell-based
compound,measurement,setting,value
CC[C@@H](C)[C@@H](NC(=O)[C@@H](CCCNC(=N)N)NC(=O)[C@@H](C)NC(=O)[C@@H](CC(C)C)NC(=O)[C@@H](CCCNC(=N)N)NC(=O)[C@@H](CCCNC(=N)N)NC(=O)CCCC[C@@H]1SC[C@@H]2NC(=O)N[C@@H]21)C(=O)N[C@H](CCCCN)C(=O)N[C@H](CO)C(=O)N[C@H](CC(C)C)C(=O)N[C@H](CC(C)C)C(=O)N[C@H](CCC(N)=O)C(=O)N[C@H](CCCNC(=N)N)C(=O)N[C@H](CS)C(=O)N[C@@H](C(=O)N[C@H](C)C(=O)N[C@H](Cc1ccccc1)C(=O)N[C@H](Cc1ccccc1)C(=O)N[C@H](CO)C(=O)N[C@H](Cc1c[nH]cn1)C(=O)N[C@H](CC(N)=O)C(=O)N[C@H](Cc1ccc(O)cc1)C(=O)N[C@H](CCCNC(=N)N)C(=O)N[C@@H](C(=O)O)C(C)C)C(C)C [Ac13r] (Biotin-[dR][dR][dL][dA][dR][dI][dK][dS][dL][dL][dQ][dR][dC][dV][dA][dF][dF][dS][dH][dN][dY][dR][dV]-OH; N-terminus and C-terminus assumed),MHC10,human RBC,~15 µM
same,MIC (μM) for amidated peptide,A. baumannii [1],1.25 to 2.5 µM
same,MIC (μM) for non-amidated Peptide,A. baumannii [1],1.25 to 2.5 µM
same,MCC10,Jurkat cells,30 µM
same,cytotoxicity at 12.5 μM,[2],0%
same,cytotoxicity at 25 μM,[2],3%
same,cytotoxicity at 50 μM,[2],39%
same,trend to reduce A. baumannii infection in the lung,A. baumannii [3],strong trend
same,"Cell counts in lungs post-treatment, Mouse 2","A. baumannii [3]; as E41, Mouse 2",2.6 × 10^5
same,"Cell counts in lungs post-treatment, Mouse 3","A. baumannii [3]; as E41, Mouse 3",9.0 × 10^4
same,"Cell counts in lungs post-treatment, Mouse 1","A. baumannii [3]; peptide i.v. after intranasal A. baumannii, lungs at 5.5 hr post-inoculation, Mouse 1",1 × 10^4
CC[C@H](C)[C@H](NC(=O)[C@H](Cc1c[nH]c2ccccc12)NC(=O)[C@H](CC(=O)O)NC(=O)[C@H](CO)NC(=O)[C@H](CS)NC(=O)[C@H](CC(C)C)NC(=O)[C@H](CC(C)C)NC(=O)[C@H](C)NC(=O)[C@H](CS)NC(=O)[C@H](CCCNC(=N)N)NC(=O)[C@H](CC(C)C)NC(=O)[C@H](CCCNC(=N)N)NC(=O)[C@H](C)NC(=O)CNC(=O)[C@H](CCCNC(=N)N)NC(=O)[C@@H](NC(=O)CCCC[C@@H]1SC[C@@H]2NC(=O)N[C@@H]21)C(C)C)C(=O)N[C@H](C(=O)N[C@@H](CO)C(=O)N[C@@H](CS)C(=O)N[C@@H](CCCNC(=N)N)C(=O)N[C@@H](CC(C)C)C(=O)N[C@@H](CC(C)C)C(=O)NCC(=O)O)C(C)C [Ac38] (Biotin-VRGARLRCALLCSDWIVSCRLLG-OH; N-terminus and C-terminus assumed),MHC10,human RBC,>100 µM
same,Percent hemolysis at 5 μM peptide,"human RBC; red cells of human, 5",0.8%
same,Percent hemolysis at 10 μM peptide,"human RBC; red cells of human, 10",3.8%
same,Percent hemolysis at 20 μM peptide,"human RBC; red cells of human, 20",4.8%
same,Percent hemolysis at 40 μM peptide,"human RBC; red cells of human, 40",11.9%
same,Percent hemolysis at 60 μM peptide,"human RBC; red cells of human, 60",19.5%
same,Percent hemolysis at 80 μM peptide,"human RBC; red cells of human, 80",26.9%
same,Percent hemolysis at 100 μM peptide,"human RBC; red cells of human, 1 h, 100",27.9%
same,MIC (μM) for amidated peptide,A. baumannii [1],15 to 20 µM
same,MIC (μM) for non-amidated Peptide,A. baumannii [1],40 µM
same,bactericidal or bacteriostatic against A. baumannii,A. baumannii [1],bactericidal
same,"selectively inhibited growth of A. baumannii ATCC Accession No. 19606, Acinetobacter spp. ATCC 17903, Acinetobacter spp. ATCC 19004, and S. aureus",[4],selectively inhibited growth
same,cytotoxicity at 12.5 μM,[2],0%
same,cytotoxicity at 25 μM,[2],0%
same,cytotoxicity at 50 μM,[2],0%
same,killing time classification,A. baumannii cultures,RAPID
CC(C)C[C@H](NC(=O)CNC(=O)[C@@H]1CCCN1C(=O)[C@H](Cc1c[nH]c2ccccc12)NC(=O)[C@H](CCCCN)NC(=O)[C@H](CCCCN)NC(=O)[C@H](CCCNC(=N)N)NC(=O)[C@H](C)NC(=O)[C@H](CCC(N)=O)NC(=O)[C@@H]1CCCN1C(=O)[C@H](CO)NC(=O)[C@@H](NC(=O)[C@H](CCCCN)NC(=O)[C@H](CC(C)C)NC(=O)[C@H](CCCCN)NC(=O)[C@@H](NC(=O)[C@H](CC(C)C)NC(=O)[C@H](Cc1c[nH]cn1)NC(=O)[C@H](CC(=O)O)NC(=O)CN)C(C)C)[C@@H](C)O)C(=O)NCC(=O)N[C@@H](CC(N)=O)C(=O)N[C@@H](CCC(=O)O)C(=O)O [Ac99] (H-GDHLVKLKTSPQARKKWPGLGNE-OH; N-terminus and C-terminus assumed),"selectively inhibited growth of Acinetobacter spp. ATCC 19004, and S. aureus",[4],selectively inhibited growth
same,% inhibition of bacterial growth by peptide,S. aureus; 12.5 μM peptide,60%
same,% inhibition of bacterial growth by peptide,S. aureus; 15 μM peptide,80%
same,% inhibition of bacterial growth by peptide,S. aureus; 17.5 μM peptide,99%
same,% inhibition of bacterial growth by peptide,S. aureus; 20 μM peptide,100%
same,% inhibition of bacterial growth by peptide,[5]; 12.5 μM peptide,16%
same,% inhibition of bacterial growth by peptide,[5]; 15 μM peptide,23%
same,% inhibition of bacterial growth by peptide,[5]; 17.5 μM peptide,17%
same,% inhibition of bacterial growth by peptide,[5]; 20 μM peptide,27%
same,% inhibition of bacterial growth by peptide,[6]; 12.5 μM peptide,9%
same,% inhibition of bacterial growth by peptide,[6]; 15 μM peptide,20%
same,% inhibition of bacterial growth by peptide,[6]; 17.5 μM peptide,14%
same,% inhibition of bacterial growth by peptide,[6]; 20 μM peptide,27%
same,% inhibition of bacterial growth by peptide,[7]; 12.5 μM peptide,0%
same,% inhibition of bacterial growth by peptide,[7]; 15 μM peptide,5%
same,% inhibition of bacterial growth by peptide,[7]; 17.5 μM peptide,0%
same,% inhibition of bacterial growth by peptide,[7]; 20 μM peptide,4%
same,% inhibition of bacterial growth by peptide,[8]; 12.5 μM peptide,0%
same,% inhibition of bacterial growth by peptide,[8]; 15 μM peptide,1%
same,% inhibition of bacterial growth by peptide,[8]; 17.5 μM peptide,7%
same,% inhibition of bacterial growth by peptide,[8]; 20 μM peptide,92%
same,% inhibition of bacterial growth by peptide,[9]; 12.5 μM peptide,0%
same,% inhibition of bacterial growth by peptide,[9]; 15 μM peptide,1%
same,% inhibition of bacterial growth by peptide,[9]; 17.5 μM peptide,1%
same,% inhibition of bacterial growth by peptide,[9]; 20 μM peptide,32%
same,% inhibition of bacterial growth by peptide,P. aeruginosa; 12.5 μM peptide,8%
same,% inhibition of bacterial growth by peptide,P. aeruginosa; 15 μM peptide,21%
same,% inhibition of bacterial growth by peptide,P. aeruginosa; 17.5 μM peptide,0%
same,% inhibition of bacterial growth by peptide,P. aeruginosa; 20 μM peptide,0%
